Experimental data as given in patent publication US20220016196A1, “Aloe Based Compositions Comprising Polysaccharides and Polyphenols for Regulation of Homeostasis of Immunity” (Unigen, Inc., priority 2020, published 2022).

System: LPS-induced septic mice
Experiment: LPS induced sepsis model, survival/mortality rate
Assay type: in vivo, mouse
Details: for # of Death after LPS: cumulative; for Number of deceased animals post LPS: per interval
Protocol: CD-1 mice were purchased from a USDA approved vendor. Male CD-1 mice at 8 weeks old were purchased form Charles River Laboratories, Inc. (Wilmington, Mass.). Animals were acclimated upon arrival and used for the study at the age of 11 weeks. At the time of the study animals average weigh 33.6±2.4 grams. They were housed in a temperature-controlled room (71-72° F.) on a 12-hour light-dark cycle and provided with feed and water ad libitum.
This model used a survival/mortality rate of animals as the end point measurement (Wang et al., 1999). LPS, an exogenous assault trigger, is an integral component of the outer membrane of gram-negative bacteria and a major contributing factor in the initiation of a generalized inflammatory process that could lead to endotoxic shock. It is a state mediated principally by macrophages/monocytes attributed to excessive production of several early phase cytokines such as TNF, IL-1, IL-6 and gamma interferon as well as a late stage mediator HMGB1. Following median lethal dose of LPS (25 mg/kg) administration dissolved in Phosphate buffered saline (PBS; Lifeline, Lot #07641), animals develop endotoxemia and HMGB1 would be detected in the serum at 8 hours and reach to a peak and plateau levels from 16 to 32 hours after LPS. If untreated, mice would start to die within 24 hours. In the current study, we monitored the mice for 4 days after LPS injection. The survival/mortality rate compared LPS +Sodium butyrate (SB; Aldrich, St. Louis, Mo.; lot #MKCG7272), LPS+Vehicle (0.5% CMC; Spectrum, New Brunswick, N.J.; lot #1IJ0127) and LPS+UP360 (Aloe based composition comprising polysaccharides and polyphenols made in Example 9). The following groups were included in the study:
In this model, mice were pretreated with UP360 illustrated in the Example 9 for a week (7 days) before lethal dose intraperitoneal injection of LPS (E. coli, 055:B5; Sigma, St. Louis, Mo.; Lot #081275) at 25 mg/kg with a 10 mL/kg PBS volume. Animals were observed hourly. Given the fact that Sodium butyrate improved LPS-induced injury in mice through suppression of HMGB1 release, we chose this compound as a positive control for our study (Li et al., 2018).
Male CD-1 mice (n=13) were treated with Aloe, Poria, and Rosmarinic acid (RA) utilized for making UP360 in Example 9 at 150 mg/kg, 300 mg/kg and 50 mg/kg, respectively, for 7 days before LPS injection. On the 8th day, mice were injected with 25 mg/kg LPS dissolved in PBS at 10 mL/kg intraperitoneally. Mice in the UP360-treated group received a daily dose of UP360 at 500 mg/kg. All mice continued to receive the respective treatment daily for the duration of the study. Following median lethal dose of LPS (25 mg/kg) i.p. administration, animals are expected to develop sepsis within a few hours. If untreated, mice would start to die within 24 hours. Animals were observed hourly. In the current study, we monitored the mice for 6 days after LPS injection. The survival rate compared LPS+Sodium butyrate (SB), LPS+Vehicle (0.5% CMC), LPS+UP360, LPS+Aloe, LPS+Poria and LPS+Rosmarinic acid. Normal control animals received only PBS intraperitoneally and gavaged only with the carrier vehicle 0.5% CMC. Given the fact that Sodium butyrate (SB) improved LPS-induced injury in mice through suppression of HMGB1 release, we chose this compound as a positive control for our study (Li et al., 2018).
The survival rate and mortality rate of the contemplated Aloe-based compositions, including UP360, comprising and, in some embodiments, consisting of polysaccharides and polyphenols was compared with those dosages of individual extracts as they appear in the formulation to find out potential additive, antagonist or synergistic effects in combination using Colby's equation (Colby, 1967). For the blending of these plant extracts to have unexpected synergy, the observed inhibition needs to be greater than the calculated value.

[1] = n=13 study, doses as E61, 24 hr
[2] = n=13 study, doses as E61, 36 hr
[3] = n=13 study, doses as E61, 48 hr
[4] = n=13 study, doses as E61, 60 hr
[5] = n=13 study, doses as E61, 72 hr
[6] = n=13 study, doses as E61, 96 hr
[7] = n=13 study, doses as E61, 120 hr
[8] = n=13 study, doses as E61, 144 hr

SMILES: CCCC(=O)[O-].[Na+] [Sodium Butyrate]
- # of Death after LPS (CD-1 mice n=8, LPS 25 mg/kg i.p., 500 mg/kg oral from 7 days before, 24 hr): 2
- Number of deceased animals post LPS (CD-1 mice n=13, LPS 25 mg/kg i.p., oral UP360/SB 500, Aloe 150, Poria 300, RA 50 mg/kg, 24 hpi): 2
- MR (%) (mortality rate, n=13 study, doses as E49, end of study): 69.2%
- # of Death after LPS, Total (n=8, LPS 25 mg/kg i.p., 500 mg/kg oral): 4
- survival rate (n=8, LPS 25 mg/kg i.p., 500 mg/kg oral, 24 hours after LPS): 75%
- survival rate (n=8, LPS 25 mg/kg i.p., 500 mg/kg oral, 34 hours after LPS): 62.5%
- survival rate (n=8, LPS 25 mg/kg i.p., 500 mg/kg oral, 48 hours after LPS): half of the animals were deceased
- survival rate (n=8, LPS 25 mg/kg i.p., 500 mg/kg oral, 72 hours after LPS): 50%
- # of Death after LPS (n=8, LPS 25 mg/kg i.p., 500 mg/kg oral, 32 hr): 3
- # of Death after LPS (n=8, LPS 25 mg/kg i.p., 500 mg/kg oral, 34 hr): 3
- # of Death after LPS (n=8, LPS 25 mg/kg i.p., 500 mg/kg oral, 48 hr): 4
- # of Death after LPS (n=8, LPS 25 mg/kg i.p., 500 mg/kg oral, 58 hr): 4
- # of Death after LPS (n=8, LPS 25 mg/kg i.p., 500 mg/kg oral, 72 hr): 4
- # of Death after LPS (n=8, LPS 25 mg/kg i.p., 500 mg/kg oral, 82 hr): 4
- Survival rate (%) (n=8, LPS 25 mg/kg i.p., 500 mg/kg oral, final (82 hours, same at 96 and 120 hours)): 50%
- Survival rate (%) (n=13, LPS 25 mg/kg i.p., UP360/Sodium Butyrate 500, Aloe 150, Poria 300, RA 50 mg/kg, 0 hr): 100%
- Survived (n=13 study, doses as E49, at 144 hpi): 4
- Number of deceased animals post LPS (n=13 study, doses as E49, 36 hpi): 4
- Number of deceased animals post LPS (n=13 study, doses as E49, 48 hpi): 1
- Number of deceased animals post LPS (n=13 study, doses as E49, 60 hpi): 1
- Number of deceased animals post LPS (n=13 study, doses as E49, 72 hpi): 0
- Number of deceased animals post LPS (n=13 study, doses as E49, 96 hpi): 1
- Number of deceased animals post LPS (n=13 study, doses as E49, 120 hpi): 0
- Number of deceased animals post LPS (n=13 study, doses as E49, 144 hpi): 0
- Deceased (n=13 study, doses as E49, total over 144 hpi): 9
- Mortality rate (%) (n=13 study, doses as E61, 0 hr): 0.0%
- Mortality rate (%) [1]: 15.4%
- Survival rate (%) [1]: 84.6%
- Mortality rate (%) [2]: 46.2%
- Survival rate (%) [2]: 53.8%
- Mortality rate (%) [3]: 53.8%
- Survival rate (%) [3]: 46.2%
- Mortality rate (%) [4]: 61.5%
- Survival rate (%) [4]: 38.5%
- Mortality rate (%) [5]: 61.5%
- Survival rate (%) [5]: 38.5%
- Mortality rate (%) [6]: 69.2%
- Survival rate (%) [6]: 30.8%
- Mortality rate (%) [7]: 69.2%
- Survival rate (%) [7]: 30.8%
- Mortality rate (%) [8]: 69.2%
- Survival rate (%) [8]: 30.8%
- SR (%) (survival rate, n=13 study, doses as E49, end of study): 30.8%
